The text below walks through data of ChEMBL document CHEMBL5303573, “Mapping human microbiome drug metabolism by gut bacteria and their genes” (Nature, 2019).

A short description of series [1]: The drug is tested on Providencia alcalifaciens strain: DSM30120 for biotransformation. The drug concentrations were measured before and after a 12-h incubation by liquid-chromatography-coupled mass spectrometry (LC–MS). The settings on record: 2 µM.
The next series addresses T1, Flavodoxin (Collinsella aerofaciens, UniProt A4ED08).
T1 sequence (A4ED08 whole entry): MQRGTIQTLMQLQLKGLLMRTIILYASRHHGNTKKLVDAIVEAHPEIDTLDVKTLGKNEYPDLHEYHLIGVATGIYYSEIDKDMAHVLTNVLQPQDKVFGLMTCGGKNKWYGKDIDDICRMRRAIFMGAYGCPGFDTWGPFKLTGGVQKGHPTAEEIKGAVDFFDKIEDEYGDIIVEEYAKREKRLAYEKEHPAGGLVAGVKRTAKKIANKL
Briefly: The drug is tested on Collinsella aerofaciens strain: ATCC25986 for biotransformation. The drug concentrations were measured before and after a 12-h incubation by liquid-chromatography-coupled mass spectrometry (LC–MS). In kind it is ADME. Particulars: 2 µM. Also noted: dose 2 uM.

Series [2] can be described thus: The drug is tested on the gut metagenome community of MV22 with ENA study accession number: PRJEB31790 and ENA sample accession number: SAMEA5537503 for biotransformation. The drug concentrations were measured over 9 timepoints collected between 0 and 24 hours of incubation by liquid-chromatography-coupled mass spectrometry (LC–MS). In kind it is ADME. Also noted: dose 2 uM, timepoint 0, 1, 2, 4, 6, 8, 12, 18, 24 hours. Particulars: 2 µM.

Series [3] has as its target T2, SGNH hydrolase-type esterase domain-containing protein (Phocaeicola dorei, UniProt B6W293).
T2 sequence (B6W293 whole entry): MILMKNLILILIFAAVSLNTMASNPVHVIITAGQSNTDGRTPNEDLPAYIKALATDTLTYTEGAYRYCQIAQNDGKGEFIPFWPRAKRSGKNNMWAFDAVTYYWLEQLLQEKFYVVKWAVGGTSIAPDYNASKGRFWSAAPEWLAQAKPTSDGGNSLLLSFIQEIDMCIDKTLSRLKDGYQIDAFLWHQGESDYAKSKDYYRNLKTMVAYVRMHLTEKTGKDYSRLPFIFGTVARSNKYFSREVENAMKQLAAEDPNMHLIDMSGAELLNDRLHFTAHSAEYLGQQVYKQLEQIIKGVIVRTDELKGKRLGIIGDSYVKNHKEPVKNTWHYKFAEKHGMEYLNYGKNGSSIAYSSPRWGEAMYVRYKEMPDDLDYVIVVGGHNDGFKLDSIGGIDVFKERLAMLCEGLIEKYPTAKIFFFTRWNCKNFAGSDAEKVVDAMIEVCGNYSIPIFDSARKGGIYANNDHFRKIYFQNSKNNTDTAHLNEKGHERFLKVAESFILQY
As to the kind of experiment: (§1) The drug is tested on Bacteroides dorei strain: DSM17855 for biotransformation. The drug concentrations were measured before and after a 12-h incubation by liquid-chromatography-coupled mass spectrometry (LC–MS). Details: dose 2 uM. The series is classed as ADME. The settings on record: 2 µM.

The target in series [4] is T3, SGNH hydrolase-type esterase domain-containing protein (Phocaeicola dorei, UniProt B6W1J1).
T3 sequence (B6W1J1 whole entry): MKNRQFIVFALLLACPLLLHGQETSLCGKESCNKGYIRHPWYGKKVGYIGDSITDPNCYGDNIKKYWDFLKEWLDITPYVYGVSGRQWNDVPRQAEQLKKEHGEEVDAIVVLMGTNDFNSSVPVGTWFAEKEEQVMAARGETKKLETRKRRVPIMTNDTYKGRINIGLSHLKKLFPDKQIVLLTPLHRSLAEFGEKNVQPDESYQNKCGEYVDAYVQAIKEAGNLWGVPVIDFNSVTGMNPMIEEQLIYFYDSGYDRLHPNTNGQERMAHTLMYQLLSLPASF
Described as §1. Also noted: dose 2 uM. The series is classed as ADME. Particulars: 2 µM.

A short description of series [5]: The drug is tested on the gut metagenome community of MV24 with ENA study accession number: PRJEB31790 and ENA sample accession number: SAMEA5537505 for biotransformation. The drug concentrations were measured over 9 timepoints collected between 0 and 24 hours of incubation by liquid-chromatography-coupled mass spectrometry (LC–MS). The settings on record: 2 µM. The series is classed as ADME. Also noted: dose 2 uM, timepoint 0, 1, 2, 4, 6, 8, 12, 18, 24 hours.

Series [6] in a line: The drug is tested on the gut metagenome community of MV05 with ENA study accession number: PRJEB31790 and ENA sample accession number: SAMEA5537486 for biotransformation. The drug concentrations were measured over 9 timepoints collected between 0 and 24 hours of incubation by liquid-chromatography-coupled mass spectrometry (LC–MS). In kind it is ADME. Also noted: dose 2 uM, timepoint 0, 1, 2, 4, 6, 8, 12, 18, 24 hours. The settings on record: 2 µM.

Series [7] can be described thus: The drug is tested on the gut metagenome community of MV08 with ENA study accession number: PRJEB31790 and ENA sample accession number: SAMEA5537489 for biotransformation. The drug concentrations were measured over 9 timepoints collected between 0 and 24 hours of incubation by liquid-chromatography-coupled mass spectrometry (LC–MS). In kind it is ADME. Details: dose 2 uM, timepoint 0, 1, 2, 4, 6, 8, 12, 18, 24 hours. Particulars: 2 µM.

A short description of series [8]: The drug is tested on the gut metagenome community of MV27 with ENA study accession number: PRJEB31790 and ENA sample accession number: SAMEA5537508 for biotransformation. The drug concentrations were measured over 9 timepoints collected between 0 and 24 hours of incubation by liquid-chromatography-coupled mass spectrometry (LC–MS). In kind it is ADME. Also noted: dose 2 uM, timepoint 0, 1, 2, 4, 6, 8, 12, 18, 24 hours. Particulars: 2 µM.

Series [9] is described as follows: The drug is tested on the gut metagenome community of MV02 with ENA study accession number: PRJEB31790 and ENA sample accession number: SAMEA5537483 for biotransformation. The drug concentrations were measured over 9 timepoints collected between 0 and 24 hours of incubation by liquid-chromatography-coupled mass spectrometry (LC–MS). The settings on record: 2 µM. Also noted: dose 2 uM, timepoint 0, 1, 2, 4, 6, 8, 12, 18, 24 hours. In kind it is ADME.

Series [10] in a line: The drug is tested on the gut metagenome community of MV16 with ENA study accession number: PRJEB31790 and ENA sample accession number: SAMEA5537497 for biotransformation. The drug concentrations were measured over 9 timepoints collected between 0 and 24 hours of incubation by liquid-chromatography-coupled mass spectrometry (LC–MS). Details: dose 2 uM, timepoint 0, 1, 2, 4, 6, 8, 12, 18, 24 hours. The series is classed as ADME. The settings on record: 2 µM.

Series [11] can be described thus: The drug is tested on the gut metagenome community of MV09 with ENA study accession number: PRJEB31790 and ENA sample accession number: SAMEA5537490 for biotransformation. The drug concentrations were measured over 9 timepoints collected between 0 and 24 hours of incubation by liquid-chromatography-coupled mass spectrometry (LC–MS). In kind it is ADME. Details: dose 2 uM, timepoint 0, 1, 2, 4, 6, 8, 12, 18, 24 hours. Particulars: 2 µM.

Series [12] in a line: The drug is tested on the gut metagenome community of MV14 with ENA study accession number: PRJEB31790 and ENA sample accession number: SAMEA5537495 for biotransformation. The drug concentrations were measured over 9 timepoints collected between 0 and 24 hours of incubation by liquid-chromatography-coupled mass spectrometry (LC–MS). Details: dose 2 uM, timepoint 0, 1, 2, 4, 6, 8, 12, 18, 24 hours. The settings on record: 2 µM. The series is classed as ADME.

The nature of series [13]: The drug is tested on the gut metagenome community of MV07 with ENA study accession number: PRJEB31790 and ENA sample accession number: SAMEA5537488 for biotransformation. The drug concentrations were measured over 9 timepoints collected between 0 and 24 hours of incubation by liquid-chromatography-coupled mass spectrometry (LC–MS). The series is classed as ADME. Also noted: dose 2 uM, timepoint 0, 1, 2, 4, 6, 8, 12, 18, 24 hours. The settings on record: 2 µM.

The conditions of series [14]: clostridioides difficile, 12 h, 2 µM.
Description: The drug is tested on Clostridium difficile strain: 120 for biotransformation. The drug concentrations were measured before and after a 12-h incubation by liquid-chromatography-coupled mass spectrometry (LC–MS)
Series [15] is described as follows: The drug is tested on Clostridium spiroforme strain: DSM1552 for biotransformation. The drug concentrations were measured before and after a 12-h incubation by liquid-chromatography-coupled mass spectrometry (LC–MS). Particulars: thomasclavelia spiroformis, 2 µM.
The nature of series [16]: The drug is tested on Clostridium hathewayi strain: DSM13479 for biotransformation. The drug concentrations were measured before and after a 12-h incubation by liquid-chromatography-coupled mass spectrometry (LC–MS). The settings on record: hungatella hathewayi, 2 µM.

As for `CN1[C@@H]2CC[C@H]1C[C@@H](OC(=O)C(CO)c1ccccc1)C2` (some centres not stated) [ATROPINE], the “Bacterial Biotransformation” value in series [1] was “Compound NOT metabolized”.

For `CC(=O)OCC(=O)[C@@]1(OC(C)=O)[C@@H](C)C[C@H]2[C@@H]3C[C@H](F)C4=CC(=O)C=C[C@]4(C)[C@@]3(F)[C@@H](O)C[C@@]21C` [DIFLORASONE DIACETATE], the “Bacterial Biotransformation” value at Flavodoxin is “Compound NOT metabolized”.

Consider `COc1ccc([C@@H]2Sc3ccccc3N(CCN(C)C)C(=O)[C@@H]2OC(C)=O)cc1` [DILTIAZEM], for which the “Bacterial Biotransformation” value (in series [2]; in series [3]; in series [4]; in series [5]; in [6]; on Flavodoxin) was “Compound NOT metabolized” in each case. For the same molecule, the “Bacterial Biotransformation” value in [7], in [8], in series [9], in series [10], in [11] and in series [12] was “Compound NOT metabolized” each time. The “Bacterial Biotransformation” value in series [13] is on record as “Compound NOT metabolized”.

As to `CNCC[C@H](Oc1cccc2ccccc12)c1cccs1` [DULOXETINE], the “Bacterial Biotransformation” value in series [1] was “Compound metabolized”; in series [14] it was “Compound metabolized”; in series [15], “Compound NOT metabolized”; in series [16], “Compound NOT metabolized”.

In the case of `CC(=O)OCC(CCn1cnc2cnc(N)nc21)COC(C)=O` [FAMCICLOVIR], the “Bacterial Biotransformation” value in series [2] is reported as “Compound metabolized”; in [3], “Compound metabolized”; in [5] it was “Compound metabolized”; in series [6], “Compound metabolized”; at Flavodoxin, “Compound NOT metabolized”; in [7], “Compound metabolized”. Also, the “Bacterial Biotransformation” value in [8], in series [9], in series [10], in [11], in series [12] and in series [13] was “Compound metabolized” throughout.

Consider `CC(C)(C(=O)O)c1ccc(C(O)CCCN2CCC(C(O)(c3ccccc3)c3ccccc3)CC2)cc1` (configuration not stated) [FEXOFENADINE], for which the “Bacterial Biotransformation” value in series [1] and in series [14] was “Compound NOT metabolized” throughout.

In the case of `O=C(CCCN1CCC(O)(c2ccc(Cl)cc2)CC1)c1ccc(F)cc1` [HALOPERIDOL], the “Bacterial Biotransformation” value in series [1], in series [14], in [15] and in series [16] was “Compound NOT metabolized” each time.

With `Cc1ccc(NC(=O)c2ccc(CN3CCN(C)CC3)cc2)cc1Nc1nccc(-c2cccnc2)n1` [IMATINIB], the “Bacterial Biotransformation” value in [1] and in [15] was “Compound NOT metabolized” in each case.

As to `CC1Cc2ccccc2N1NC(=O)c1ccc(Cl)c(S(N)(=O)=O)c1` (configuration not stated) [INDAPAMIDE], the “Bacterial Biotransformation” value in series [14], in [15] and in series [16] was “Compound NOT metabolized” each time.

As to `C#C[C@]1(O)CC[C@H]2[C@@H]3CCC4=CC(=O)CC[C@@H]4[C@H]3CC[C@@]21CC` [LEVONORGESTREL], the “Bacterial Biotransformation” value (in series [3]; in series [4]; on Flavodoxin) was “Compound NOT metabolized” throughout.

In the case of `COC(=O)Nc1nc2ccc(C(=O)c3ccccc3)cc2[nH]1` [MEBENDAZOLE], the “Bacterial Biotransformation” value in series [1], in series [14], in series [15] and in [16] was “Compound NOT metabolized” each time.

As to `COc1ccc2cc([C@H](C)C(=O)O)ccc2c1` [NAPROXEN], the “Bacterial Biotransformation” value in series [1], in series [14], in series [15] and in series [16] was “Compound NOT metabolized” in each case.

`C#C[C@]1(OC(C)=O)CC[C@H]2[C@@H]3CCC4=CC(=O)CC[C@@H]4[C@H]3CC[C@@]21C` [NORETHINDRONE ACETATE]: the “Bacterial Biotransformation” value in [2] is on record as “Compound metabolized”; in series [3], “Compound NOT metabolized”; in series [4] it was “Compound NOT metabolized”; in series [5], “Compound metabolized”; in [6], “Compound metabolized”; on Flavodoxin, “Compound NOT metabolized”. The “Bacterial Biotransformation” value in series [7], in series [8], in [9], in series [10], in series [11] and in series [12] was “Compound metabolized” in each case. In addition, the “Bacterial Biotransformation” value in series [13] is “Compound metabolized”.

With `C#C[C@]1(OC(C)=O)CC[C@H]2[C@@H]3CCC4=C/C(=N/O)CC[C@@H]4[C@H]3CC[C@@]21CC` [NORGESTIMATE], the “Bacterial Biotransformation” value in series [1], in [15] and in [16] was “Compound NOT metabolized” each time.

Turning to `N#Cc1ccc2c(c1)N(CCCN1CCC(O)CC1)c1ccccc1S2` [PERICIAZINE], the “Bacterial Biotransformation” value (in series [3]; in series [4]; at Flavodoxin) was “Compound NOT metabolized” each time.
